Data reported in the NIST ThermoML archive (doi:10.1016/j.jct.2007.03.005).
Numbers after ± are expanded uncertainties.

Assays:
[1] = DTA
[2] = Molar enthalpy of transition or fusion; settings: DSC

| Structure (SMILES) | Normal melting temperature ([1]; Crystal) [°C] | Molar enthalpy of transition or fusion ([2]; Crystal) [kcal/mol] | Normal melting temperature ([1]; Crystal 1) [°C] | Triple point temperature ([1]; Crystal 2) [K] | Molar enthalpy of transition or fusion ([2]; Crystal 1) [kcal/mol] | also measured |
| --- | --- | --- | --- | --- | --- | --- |
| N#CCCCCCCCCCC#N [undecanodinitrile] | -7.01 ± 0.73 | 6.22 ± 0.406 |  |  |  |  |
| N#CCCCCCCCCCCCCC#N [tetradecanedinitrile] |  |  | 36.40 ± 0.8 | 261.05 ± 0.56 | 9.6 ± 0.227 | Molar enthalpy of transition or fusion ([2]; Crystal 2): 0.423 ± 0.0741 kcal/mol |
| N#CCCC#N [butanedinitrile] |  |  | 57.11 ± 1.4 | 233.59 ± 0.53 | 0.896 ± 0.11 | Molar enthalpy of transition or fusion ([2]; Crystal 2): 1.46 ± 0.0813 kcal/mol |
| N#CCCCCCCCCCCC#N [dodecanedinitrile] | 21.08 ± 0.48 | 8.21 ± 0.263 |  |  |  |  |
| N#CCCCCCCCCC#N [decanedinitrile] |  |  | 8.03 ± 0.46 | 278.02 ± 1.9 | 6.73 ± 0.153 |  |
| N#CCC#N [propanedinitrile] |  |  | 31.89 ± 0.55 | 303.64 ± 2.1 | 2.56 ± 0.11 | Triple point temperature ([1]; Crystal 3): 294.24 ± 1.1 K; Triple point temperature ([1]; Crystal 4): 260.9 ± 1.6 K; Molar enthalpy of transition or fusion ([2]; Crystal 4): 0.103 ± 0.0287 kcal/mol |
| N#CCCCCC#N [hexanedinitrile] |  |  | 1.89 ± 0.49 | 270.25 ± 1.9 | 4.31 ± 0.153 |  |
| N#CCCCCCC#N [heptanedinitrile] |  |  | -31.4 ± 0.39 | 236.72 ± 1.8 | 3.59 ± 0.406 |  |
| N#CCCCCCCC#N [octanedinitrile] |  |  | -4.22 ± 1.1 | 265.82 ± 2.5 | 5.25 ± 0.148 |  |
| N#CCCCC#N [pentanedinitrile] | -31.10 ± 0.5 | 2.88 ± 0.189 |  |  |  |  |
| N#CCCCCCCCC#N [nonanedinitrile] | -22.01 ± 0.55 | 4.46 ± 0.263 |  |  |  |  |
